Assay results published in publication PMC10746543, “Design principles for cyclin K molecular glue degraders” (Nature Chemical Biology, 2023).
Where “and” joins values, the source holds several entries; their conditions need not be identical. Equal values may be shown once. Read-outs that look alike come from different tables or passages of the source.

Key:
HEK293T cells = experiment: Drug sensitivity assay (CellTiter-Glo viability) with or without MLN4924 pretreatment; type: cell-based, human; settings: Supplementary Table 2
Method in brief: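 HEK293T–Cas9, 0.15 × 10^6 ml^−1; pretreat DMSO vs 100 nM MLN4924; drugs dispensed after 2 h; 3 d exposure; CellTiter-Glo; viability vs DMSO control.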

CDK2–cyclin A = target: T1, CDK2–cyclin A (Homo sapiens, UniProt P24941); experiment: Lanthascreen kinase binding assay, CDK2; settings: for Lanthascreen signal, sheet CDK2: raw replicates, experiment r1-r11
T1 construct: purchased Thermo Fisher
Experimental: (§1) Lanthascreen experiments were performed using commercially available reagents (Thermo Fisher) and according to the manufacturer’s instructions.

CDK12–cyclin K = CDK12–cyclin K (Homo sapiens, UniProt Q9NYV4); experiment: Lanthascreen kinase binding assay, CDK12; settings: for Lanthascreen raw signal, sheet CDK12: series r1, duplicates
Experimental: as §1

CDK12–cyclin K and DDB1 = target: T2, CDK12–cyclin K and DDB1 (Homo sapiens, UniProt Q16531+Q9NYV4, K965R); experiment: TR-FRET ternary complex formation assay (compound titration); type: binding
T2 construct: His6–CDK12 (a.a. 713–1,052); full-length or beta-propeller B domain deletion (ΔBPB: a.a. 396–705 deleted) constructs of His6–DDB1ΔBPB, StrepII–Avi–DDB1, or His6–Spy–DDB1; made in house; host or cells: Trichoplusia ni High Five insect cells (baculovirus)
Method in brief: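 Signal was the ratio of 520 nm to 490 nm fluorescence, measured after a 70 μs delay that reduced background.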

CDK9–cyclin T = target: T3, CDK9–cyclin T (Homo sapiens, UniProt P50750); experiment: Lanthascreen kinase binding assay, CDK9; settings: for Lanthascreen TR-FRET signal (raw ratio), sheet CDK9: first titration set (r1), duplicates
T3 construct: purchased Thermo Fisher
Experimental: as §1

[1] = tested on: cyclin K–eGFP degradation reporter; experiment: Cyclin K reporter stability analysis (dual-color cyclin K–eGFP reporter); type: cell-based, human; settings: Supplementary Table 2; HEK293T cycK-eGFP reporter, 5 h; read-out: Cellular assays DC50
Method in brief: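 A 5 h treatment of HEK293T–Cas9 cells expressing the degradation reporter preceded flow cytometry; eGFP over mCherry, normalized to DMSO.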

T3 sequence (P50750 whole entry): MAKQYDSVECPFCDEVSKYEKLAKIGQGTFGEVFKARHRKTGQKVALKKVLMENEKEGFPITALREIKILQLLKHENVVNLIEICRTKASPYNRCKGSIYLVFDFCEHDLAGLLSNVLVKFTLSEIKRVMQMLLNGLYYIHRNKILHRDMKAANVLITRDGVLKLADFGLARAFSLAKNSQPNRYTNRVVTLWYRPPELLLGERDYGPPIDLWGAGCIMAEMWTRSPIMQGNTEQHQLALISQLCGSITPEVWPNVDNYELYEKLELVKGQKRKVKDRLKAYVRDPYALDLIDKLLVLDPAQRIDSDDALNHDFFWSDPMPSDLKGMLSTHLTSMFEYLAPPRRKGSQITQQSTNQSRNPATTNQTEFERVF
T3 sequence (O60563 whole entry partner): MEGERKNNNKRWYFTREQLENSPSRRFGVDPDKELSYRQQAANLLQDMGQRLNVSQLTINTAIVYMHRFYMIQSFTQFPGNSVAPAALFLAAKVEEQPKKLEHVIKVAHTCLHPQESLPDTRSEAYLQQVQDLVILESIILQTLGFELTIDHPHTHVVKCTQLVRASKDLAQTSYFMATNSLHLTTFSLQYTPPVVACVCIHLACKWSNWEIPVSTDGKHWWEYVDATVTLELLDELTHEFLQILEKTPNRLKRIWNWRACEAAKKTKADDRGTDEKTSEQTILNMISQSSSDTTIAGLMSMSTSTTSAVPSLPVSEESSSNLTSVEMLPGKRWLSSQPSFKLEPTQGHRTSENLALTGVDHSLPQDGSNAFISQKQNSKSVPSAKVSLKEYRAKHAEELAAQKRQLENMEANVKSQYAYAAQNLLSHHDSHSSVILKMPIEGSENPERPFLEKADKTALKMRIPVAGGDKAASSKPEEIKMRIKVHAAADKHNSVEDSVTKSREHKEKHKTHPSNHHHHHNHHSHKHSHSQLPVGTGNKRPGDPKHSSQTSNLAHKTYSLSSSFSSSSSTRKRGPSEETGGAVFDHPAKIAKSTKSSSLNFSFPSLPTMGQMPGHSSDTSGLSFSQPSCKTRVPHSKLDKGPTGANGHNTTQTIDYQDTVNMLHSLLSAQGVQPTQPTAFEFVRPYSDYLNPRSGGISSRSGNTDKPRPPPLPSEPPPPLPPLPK
Sequence of CDK12–cyclin K (Q9NYV4 713-1052): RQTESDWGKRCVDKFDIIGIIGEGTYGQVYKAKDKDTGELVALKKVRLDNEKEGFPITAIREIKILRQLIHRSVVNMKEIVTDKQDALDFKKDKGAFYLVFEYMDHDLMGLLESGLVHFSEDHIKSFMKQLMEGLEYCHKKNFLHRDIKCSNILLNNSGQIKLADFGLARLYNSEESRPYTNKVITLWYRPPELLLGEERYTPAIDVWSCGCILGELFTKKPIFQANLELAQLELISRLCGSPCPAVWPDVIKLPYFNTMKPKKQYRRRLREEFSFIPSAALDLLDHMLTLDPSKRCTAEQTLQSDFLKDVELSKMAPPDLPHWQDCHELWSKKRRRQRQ
Sequence of CDK12–cyclin K (O75909 1-267 partner limits assumed): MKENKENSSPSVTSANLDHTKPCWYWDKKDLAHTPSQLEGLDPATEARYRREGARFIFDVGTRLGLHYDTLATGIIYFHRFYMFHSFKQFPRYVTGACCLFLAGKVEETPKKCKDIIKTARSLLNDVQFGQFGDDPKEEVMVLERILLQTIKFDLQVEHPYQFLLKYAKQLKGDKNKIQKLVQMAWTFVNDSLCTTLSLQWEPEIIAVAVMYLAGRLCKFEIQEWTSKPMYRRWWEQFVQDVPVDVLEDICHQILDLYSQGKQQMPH
T2 sequence (Q9NYV4 713-1052 K965R): as the sequence (Q9NYV4 713-1052) above, with K253R counted along it
T2 sequence (O75909 1-267 partner): as the sequence (O75909 1-267 partner limits assumed) above
T2 sequence (Q16531 whole entry): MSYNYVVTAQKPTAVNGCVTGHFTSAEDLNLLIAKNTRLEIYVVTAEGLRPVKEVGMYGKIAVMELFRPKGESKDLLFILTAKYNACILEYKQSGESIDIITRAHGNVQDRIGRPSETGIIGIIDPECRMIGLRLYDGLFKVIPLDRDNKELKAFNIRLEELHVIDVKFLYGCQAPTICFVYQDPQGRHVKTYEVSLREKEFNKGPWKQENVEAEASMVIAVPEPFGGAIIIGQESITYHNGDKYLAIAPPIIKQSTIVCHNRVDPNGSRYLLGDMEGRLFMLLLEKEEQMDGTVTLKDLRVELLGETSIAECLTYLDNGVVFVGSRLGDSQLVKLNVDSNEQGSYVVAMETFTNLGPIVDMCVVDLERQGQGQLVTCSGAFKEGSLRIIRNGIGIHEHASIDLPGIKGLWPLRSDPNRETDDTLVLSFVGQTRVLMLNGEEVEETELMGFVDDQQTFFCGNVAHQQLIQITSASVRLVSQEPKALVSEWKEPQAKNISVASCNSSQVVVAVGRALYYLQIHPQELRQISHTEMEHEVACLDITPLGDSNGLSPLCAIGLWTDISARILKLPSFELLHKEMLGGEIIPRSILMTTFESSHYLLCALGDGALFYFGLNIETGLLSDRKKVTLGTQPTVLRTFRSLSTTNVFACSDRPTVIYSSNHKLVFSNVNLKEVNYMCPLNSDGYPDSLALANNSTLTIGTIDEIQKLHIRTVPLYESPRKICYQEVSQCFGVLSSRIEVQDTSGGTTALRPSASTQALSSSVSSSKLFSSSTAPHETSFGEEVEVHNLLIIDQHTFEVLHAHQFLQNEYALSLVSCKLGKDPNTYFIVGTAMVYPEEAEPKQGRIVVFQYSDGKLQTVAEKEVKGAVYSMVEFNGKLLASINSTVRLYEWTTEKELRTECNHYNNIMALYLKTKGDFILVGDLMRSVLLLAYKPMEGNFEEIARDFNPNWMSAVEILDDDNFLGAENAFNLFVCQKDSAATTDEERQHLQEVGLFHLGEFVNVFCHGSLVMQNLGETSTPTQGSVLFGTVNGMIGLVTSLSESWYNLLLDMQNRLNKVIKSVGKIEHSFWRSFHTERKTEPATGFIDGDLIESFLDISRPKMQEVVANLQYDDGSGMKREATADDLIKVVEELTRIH

Lanthascreen signal, sheet CDK2 (CDK2–cyclin A; Compound 1.02544 nM): 0.01007 and 0.009144
Lanthascreen signal, sheet CDK2 (CDK2–cyclin A; Compound 3.15521 nM): 0.0112 and 0.008273
Lanthascreen signal, sheet CDK2 (CDK2–cyclin A; Compound 9.46563 nM): 0.0109 and 0.01003
Lanthascreen signal, sheet CDK2 (CDK2–cyclin A; Compound 31.5521 nM): 0.009356 and 0.009077
Lanthascreen signal, sheet CDK2 (CDK2–cyclin A; Compound 99.3891 nM): 0.01058 and 0.01018
Lanthascreen signal, sheet CDK2 (CDK2–cyclin A; Compound 315.521 nM): 0.009946 and 0.008466
Lanthascreen signal, sheet CDK2 (CDK2–cyclin A; Compound 3155.21 nM): 0.009117 and 0.008683
Lanthascreen signal, sheet CDK2 (CDK2–cyclin A; Compound 10002 nM): 0.008076 and 0.006678
IC50 (CDK2–cyclin A; Lanthascreen, average, Extended Data Fig. 8, read-out: CDK2 IC50): > 10000 nM
IC50 (CDK2–cyclin A; Supplementary Table 2, read-out: Lanthascreen IC50 [nM] CDK2): > 10000 nM
IC50 (CDK12–cyclin K; Lanthascreen, average, Extended Data Fig. 8, read-out: CDK12 IC50): > 10000 nM
IC50 (CDK12–cyclin K; Supplementary Table 2, read-out: Lanthascreen IC50 [nM] CDK12): > 10000 nM
Lanthascreen raw signal, sheet CDK12 (CDK12–cyclin K; compound 1.02544 nM): 0.009993 and 0.009189
Lanthascreen raw signal, sheet CDK12 (CDK12–cyclin K; compound 3.15521 nM): 0.007678 and 0.01017
Lanthascreen raw signal, sheet CDK12 (CDK12–cyclin K; compound 9.46563 nM): 0.008332 and 0.008957
Lanthascreen raw signal, sheet CDK12 (CDK12–cyclin K; compound 31.5521 nM): 0.009201 and 0.006925
Lanthascreen raw signal, sheet CDK12 (CDK12–cyclin K; compound 99.3891 nM): 0.01004 and 0.007454
Lanthascreen raw signal, sheet CDK12 (CDK12–cyclin K; compound 315.521 nM): 0.008681 and 0.00881
Lanthascreen raw signal, sheet CDK12 (CDK12–cyclin K; compound 3155.21 nM): 0.008543 and 0.006433
Lanthascreen raw signal, sheet CDK12 (CDK12–cyclin K; compound 10002 nM): 0.006174 and 0.006044
EC50 (CDK12–cyclin K and DDB1; Supplementary Table 2, read-out: TR-FRET EC50 TR-FRET): 303 nM
TR-FRET signal (CDK12–cyclin K and DDB1; compound concentration 0.468 nM): 0.3146 and 0.2937
TR-FRET signal (CDK12–cyclin K and DDB1; compound concentration 2.16 nM): 0.327 and 0.3142
TR-FRET signal (CDK12–cyclin K and DDB1; compound concentration 3.6 nM): 0.3516 and 0.3492
TR-FRET signal (CDK12–cyclin K and DDB1; compound concentration 4.68 nM): 0.1778 and 0.177
TR-FRET signal (CDK12–cyclin K and DDB1; compound concentration 7.92001 nM): 0.4103 and 0.4025
TR-FRET signal (CDK12–cyclin K and DDB1; compound concentration 15.84 nM): 0.4987 and 0.4962
TR-FRET signal (CDK12–cyclin K and DDB1; compound concentration 21.6 nM): 0.3031 and 0.3042
TR-FRET signal (CDK12–cyclin K and DDB1; compound concentration 30.96 nM): 0.6587 and 0.6967
TR-FRET signal (CDK12–cyclin K and DDB1; compound concentration 36 nM): 0.5003 and 0.5187
TR-FRET signal (CDK12–cyclin K and DDB1; compound concentration 62.6401 nM): 0.9444 and 1.024
TR-FRET signal (CDK12–cyclin K and DDB1; compound concentration 79.2001 nM): 0.8582 and 0.8909
TR-FRET signal (CDK12–cyclin K and DDB1; compound concentration 125.28 nM): 1.324 and 1.444
TR-FRET signal (CDK12–cyclin K and DDB1; compound concentration 158.4 nM): 1.305 and 1.368
TR-FRET signal (CDK12–cyclin K and DDB1; compound concentration 244.8 nM): 1.9166 and 1.983
TR-FRET signal (CDK12–cyclin K and DDB1; compound concentration 309.6 nM): 1.882 and 1.916
TR-FRET signal (CDK12–cyclin K and DDB1; compound concentration 626.401 nM): 2.43 and 2.4997
TR-FRET signal (CDK12–cyclin K and DDB1; compound concentration 993.601 nM): 2.9527 and 2.952
TR-FRET signal (CDK12–cyclin K and DDB1; compound concentration 1252.8 nM): 2.93 and 3.011
TR-FRET signal (CDK12–cyclin K and DDB1; compound concentration 2001.6 nM): 3.382 and 3.238
TR-FRET signal (CDK12–cyclin K and DDB1; compound concentration 2448 nM): 3.265 and 3.3741
TR-FRET signal (CDK12–cyclin K and DDB1; compound concentration 9936.01 nM): 3.59 and 3.595
TR-FRET signal (CDK12–cyclin K and DDB1; compound concentration 20016 nM): 3.713 and 3.698
EC50 (CDK12–cyclin K and DDB1; in vitro complex formation, 50 nM CDK12–cyclin K, 100 nM DDB1, text and figures, read-out: TR-FRET EC50): 303 ± 16 nM
EC50 (CDK12–cyclin K and DDB1; sheet MOESM7, read-out: log TR-FRET EC50 (converted)): 303 nM
IC50 (CDK9–cyclin T; Supplementary Table 2, read-out: Lanthascreen IC50 [nM] CDK9): 873 nM
Lanthascreen TR-FRET signal (raw ratio), sheet CDK9 (CDK9–cyclin T; compound 1.02544 nM): 0.01205 and 0.01344
Lanthascreen TR-FRET signal (raw ratio), sheet CDK9 (CDK9–cyclin T; compound 3.15521 nM): 0.01275 and 0.01665
Lanthascreen TR-FRET signal (raw ratio), sheet CDK9 (CDK9–cyclin T; compound 9.46563 nM): 0.01222 and 0.01758
Lanthascreen TR-FRET signal (raw ratio), sheet CDK9 (CDK9–cyclin T; compound 31.5521 nM): 0.01391 and 0.02091
Lanthascreen TR-FRET signal (raw ratio), sheet CDK9 (CDK9–cyclin T; compound 99.3891 nM): 0.01184 and 0.01953
Lanthascreen TR-FRET signal (raw ratio), sheet CDK9 (CDK9–cyclin T; compound 315.521 nM): 0.01137 and 0.01786
Lanthascreen TR-FRET signal (raw ratio), sheet CDK9 (CDK9–cyclin T; compound 3155.21 nM): 0.003916 and 0.005427
Lanthascreen TR-FRET signal (raw ratio), sheet CDK9 (CDK9–cyclin T; compound 10002 nM): 0.004637 and 0.003497
DC50 [1]: > 10 µM
SMILES: O=C(CCn1cnc2ccccc2c1=O)Nc1ccc(Br)cn1 [Z7]
EC50 (HEK293T cells; Homo sapiens, HEK-293T, HEK293T viability, 72 h, compound alone, read-out: Cellular assays EC50): > 10 µM
Toxicity rescue (HEK293T cells; MLN4924-mediated cytotoxicity rescue, 10 µM used where n.d.): 0%
